According to ChEMBL document CHEMBL1143855, “(2S,2'R)-analogue of LG190178 is a major active isomer” (Bioorg Med Chem Lett, 2008):

Each compound was assayed against T1, Vitamin D3 receptor (Homo sapiens) (UniProt P11473) (assay: Binding affinity to VDR relative to (1-alpha 25-(OH)2D3).
T1 sequence (whole entry): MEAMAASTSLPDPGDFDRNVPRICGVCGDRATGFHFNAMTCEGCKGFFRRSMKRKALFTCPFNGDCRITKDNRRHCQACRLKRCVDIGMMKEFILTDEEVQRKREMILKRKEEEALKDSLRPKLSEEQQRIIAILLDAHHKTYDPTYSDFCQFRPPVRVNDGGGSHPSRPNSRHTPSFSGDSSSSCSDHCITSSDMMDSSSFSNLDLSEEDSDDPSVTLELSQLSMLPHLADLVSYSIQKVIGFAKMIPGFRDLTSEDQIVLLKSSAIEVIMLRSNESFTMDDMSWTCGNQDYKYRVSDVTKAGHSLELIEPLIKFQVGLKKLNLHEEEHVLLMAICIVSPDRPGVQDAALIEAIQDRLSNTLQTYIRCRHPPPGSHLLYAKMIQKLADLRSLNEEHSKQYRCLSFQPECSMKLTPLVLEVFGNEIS

| Activity | SMILES |
| --- | --- |
| 28.3 | CCC(CC)(c1ccc(OC[C@@H](O)CO)c(C)c1)c1ccc(OC[C@H](O)C(C)(C)C)c(C)c1 |
| 0.831 | CCC(CC)(c1ccc(OC[C@@H](O)CO)c(C)c1)c1ccc(OC[C@@H](O)C(C)(C)C)c(C)c1 |
| 0.482 | CCC(CC)(c1ccc(OC[C@H](O)CO)c(C)c1)c1ccc(OC[C@H](O)C(C)(C)C)c(C)c1 |
| 0.112 | CCC(CC)(c1ccc(OC[C@H](O)CO)c(C)c1)c1ccc(OC[C@@H](O)C(C)(C)C)c(C)c1 |
